Results reported in patent US9587225B2, “Low-molecular-compound for improving production, maintenance and proliferation of pluripotent stem cells, composition comprising the same, and culture method” (KOREA RESEARCH INSTITUTE OF BIOSCIENCE AND BIOTECHNOLOGY, priority 2012, dated 2017).

Columns and labels:
[1] = test system: human skin fibroblasts (hFFs); assay: Reprogramming of human skin fibroblasts, AP-positive colony count; format: cell-based
Protocol: In order to screen low-molecular-weight compounds that promote the production of reprogrammed stem cells, human fibroblasts were transduced with reprogramming viruses (Oct4, Sox2, Klf4, and c-Myc). After 5 days, the cells were seeded on Matrigel-coated plates, and then cultured in MEF-conditioned medium (CM) containing each of low-molecular-weight compounds until colonies having a morphology similar to that of human embryonic stem cells were formed. After 15 days, alkaline phosphatase (AP) activity was measured, and compounds that increased the efficiency of reprogramming compared to that of a control group were selected. […] The values shown on the graph are mean values. The data are expressed as mean±SD (n=3).
For production of iPSC, human skin fibroblasts (hFFs) and mouse embryonic fibroblasts (MEFs) were seeded on gelatin-coated 6-well plates at a concentration of 1×10^5 cells per well at one day before transfection and were transfected with virus in the presence of polybrene (8 μg/ml). At 5 days after the transfection, hFFs or MEFs were collected by trypsin treatment and seeded again on Matrigel-coated 6-well plates at a concentration of 5 to 6×10^4 cells per well in order to perform experiments in feeder-free conditions. The medium was replaced with MEF-CM medium containing 10 ng/ml of bFGF. MEF-CM was prepared as γ-irradiated MEF according to a known method (Xu C. Nat Biotechnol 19, 971-974), and […] bFGF was added to MEF-CM. The medium was replaced at 2-day intervals. At 20 days after the transfection, hESC-like colonies were collected and transferred to 12-well plates having MEFs as feeder cells, and then continuously cultured using the hESC culture method described in Example 2.
The OSKM reprogramming factor virus was produced according to the method of Example 3. In order to screen low-molecular-weight compounds that increase the efficiency of reprogramming, hFFs and mouse embryonic fibroblasts (OG2-MEF; hemizygous for the Oct4-GFP transgene) were seeded on gelatin-coated 6-well plates at a concentration of 1×10^5 cells at one day before transfection, and then transfected with virus in the presence of polybrene (8 μg/ml). At 5 days after the transfection, hFFs or MEFs were collected by trypsin treatment and seeded again on Matrigel- or gelatin-coated 12-well plates at a concentration of 3.5×10^4 cells per well in order to perform experiments under feeder-free conditions. The medium was replaced with 10 ng/ml bFGF-containing MEF-CM or mouse embryonic stem cell culture medium, and then the prepared low-molecular-weight compounds that are trans-3-indoleacrylic based compounds were added at various concentrations. The culture medium containing each of the low-molecular-weight compounds was replaced at 2-day intervals. At 15 days after the transfection, the number of either colonies showing AP activity or colonies expressing endogenous Oct4 GFP fluorescence was measured to determine the efficiency of reprogramming.
ALP staining was performed using a commercial ALP kit (Sigma) according to the manufacturer's instruction. Images of ALP-positive cells were recorded using HP Scanjet G4010. In addition, bight field images were obtained using an Olympus microscope (IX51, Olympus, Japan).
To discover low-molecular-weight compounds that involved in the reprogramming of human somatic cells, reprogramming regulators of human skin fibroblasts were investigated by analog library screening of thirty selected novel trans-3-indoleacrylic acid-based compounds. Human skin fibroblasts were transfected with OSKM reprogramming virus, and after 5 days, the cells were seeded on Matrigel-coated 12-well plates and incubated in MEF-conditioned medium (CM) containing each of the low-molecular-weight compounds until colonies having a morphology similar to that of human embryonic stem cells were formed.

human skin fibroblasts = assay: SA-β-gal senescence assay during reprogramming; format: cell-based; settings: 10 days after induction of reprogramming, compared to untreated control (OSKM alone) (FIG. 17)
[2] = test system: Mouse embryonic fibroblasts (OG2-MEF; hemizygous for the Oct4-GFP transgene); assay: Reprogramming of mouse embryonic fibroblasts, Oct4-GFP colony count; format: cell-based
Protocol: FIG. 1 is a process of screening mouse cell reprogramming factors using analog library screening of novel trans-3-indoleacrylic acid-based compounds. In order to screen low-molecular-weight compounds that promote the production of reprogrammed stem cells, mouse embryonic stem cells (OG2-MEF; hemizygous for the Oct4-GFP transgene) were transduced with reprogramming viruses (Oct4, Sox2, Klf4, and c-Myc). After 5 days, the cells were seeded on gelatin-coated plates and then cultured in mouse embryonic stem cell culture media containing each of low-molecular-weight compounds until colonies having a morphology similar to that of mouse embryonic stem cells were formed. After 15 days, the number of colonies expressing endogenous Oct4 GFP fluorescence was measured, and compounds that increased the efficiency of reprogramming compared to that of a control group were selected. […] Oct4 (O), Sox2 (S), Klf4 (K), and cMyc (M). FIG. 1B is a graph showing the increase in efficiency of reprogramming by RSC-133 and ID-558 among screened compounds. The values shown on the graph are mean values. The data are expressed as mean±SD (n=3).
The OSKM reprogramming factor virus was produced according to the method of Example 3. […] At 15 days after the transfection, the number of either colonies showing AP activity or colonies expressing endogenous Oct4 GFP fluorescence was measured to determine the efficiency of reprogramming.
To discover low-molecular-weight compounds that are involved in the reprogramming process, analog library screening of novel trans-3-indoleacrylic acid-based compounds was performed in mouse cells. Mouse embryonic fibroblasts (OG2-MEF: hemizygous for the Oct4-GFP transgene) were transfected with reprogramming viruses of Oct4, Sox2, Klf4 and c-Myc (OSKM), and after 5 days, the cells were seeded on gelatin-coated 12-well plates and incubated with mouse embryonic stem cell culture medium containing each of low-molecular-weight compounds until colonies having a morphology similar to that mouse stem cells were formed so that endogenous Oct4 GFP fluorescence was expressed (FIG. 1A). […]

total HDAC enzymes = assay: Activity of total HDAC enzymes during reprogramming; format: cell-based, human; settings: during reprogramming (FIG. 19 left)
Protocol: The values shown on the graph are mean values. The data are expressed as mean±SD (n=3) (*P<0.01, **P<0.005, by t-test).
Next, whether the above-described results were results of the inhibition of HDAC enzyme by RSC-133 during reprogramming of human skin fibroblasts was examined. […] According to the experimental method shown in FIG. 21, the expression levels of HDAC-family proteins were measured, and as a result, it could be seen that the expression level of HDAC1 in the test group treated with RSC-133 was inhibited at 10 days after treatment with RSC-133 compared to that of the control group (the light panel of FIG. 19 and FIG. 21). It was reported that HDAC1 can occupy the Oct4, Sox2, Klf4 and c-Myc gene loci in embryonic stem cells and that the expression of pluripotency-specific marker genes in HDAC1-deleted embryonic stem cells is increased. Thus, it is believed that RSC-133 can inhibit the function of HDAC1 and increase the H3K9ace level to stimulate the reprogramming process.

## NC(=O)c1cccc(NC(=O)/C=C/c2c[nH]c3ccccc23)c1 [RSC-133, 3-[3-(1H-indol-3-yl)-acrylamido]-benzamide]
[1]; 0, 0.1, 1, 5, 10 and 20 μM tested
  concentration that increases the efficiency of reprogramming to the highest level: 10 µM
[1]; 20 μM (FIG. 8)
  efficiency of reprogramming at 20 μM versus 10 μM: did not increase
[1]; 5% O2, compared to control group (FIG. 4)
  efficiency of reprogramming, hypoxic conditions: showed the effect of increasing the efficiency of reprogramming of human skin fibroblasts
[1]; 21% O2, compared to control group (FIG. 4)
  efficiency of reprogramming, normal conditions: showed the effect of increasing the efficiency of reprogramming of human skin fibroblasts
[1]; OSKM, MEF-CM, after 15 days, compared to control group (FIG. 3)
  efficiency of reprogramming (alkaline phosphatase activity): increased the efficiency of reprogramming of human skin fibroblasts
[1]; RSC 133 10 μM, AP-positive colonies, OSKM (FIG. 2b)
  effect on the promotion of reprogramming of human cells relative to AZA, VPA, TSA and SB431542: 1.5-3.3 times
[1]; treatment concentration of up to 10 μM, AP-positive colonies (FIG. 8)
  concentration dependence of the increase in efficiency of reprogramming: concentration-dependent manner
[1]; treatment throughout the reprogramming process (condition 1 in FIG. 10)
  efficiency of reprogramming, continuous treatment: increased to the highest level
Human skin fibroblasts
  decrease of the ratio of SA-β-gal-positive cells: 37.23%
[2]; OG2-MEF transfected with OSKM, after 15 days, compared to control group
  efficiency of reprogramming (number of colonies expressing endogenous Oct4 GFP fluorescence): showed the effect of increasing the efficiency of reprogramming
[2]; vs 5-Azacytidine, BIX-01294, VPA or increased MOI of OSKM virus (FIG. 2a)
  efficiency of reprogramming compared to reported compounds: greatly increased the efficiency of reprogramming
Total HDAC enzymes
  activity of total HDAC enzymes: slightly inhibited
